In PubChem BioAssay AID1963843 (Molecular Pharmacology Branch, DTP, NCI, 2024):

System: 616215-338-R-J1-PDC complex spheroid viability
Assay: Anticancer human tumor 616215-338-R-J1-PDC patient-derived colon adenocarcinoma cell line growth inhibition [POLQ]
Settings: for IC50: curve of first compound; for viability, T/C: stronger effect = lower value
Summary of the method: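 Patient-derived tumour cells were co-cultured with HUVEC and mesenchymal stem cells as multicellular spheroids at 37 °C. They were treated with POLQ inhibitors (novobiocin, ART-558, RP6685) alone or combined with other agents. Top concentrations were at or near clinical Cmax (otherwise 10 microM; SN-38 at 1 microM), decreasing in half-log steps.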

[1] = second compound 0.0316 µM, first compound 0.0316 µM
[2] = second compound 0.0316 µM, first compound 0.1 µM
[3] = second compound 0.0316 µM, first compound 0.316 µM
[4] = second compound 0.0316 µM, first compound 1 µM
[5] = second compound 0.1 µM, first compound 0.0316 µM
[6] = second compound 0.1 µM, first compound 0.1 µM
[7] = second compound 0.1 µM, first compound 0.316 µM
[8] = second compound 0.1 µM, first compound 1 µM
[9] = second compound 0.316 µM, first compound 0.0316 µM
[10] = second compound 0.316 µM, first compound 0.1 µM
[11] = second compound 0.316 µM, first compound 0.316 µM
[12] = second compound 0.316 µM, first compound 1 µM
[13] = second compound 1 µM, first compound 0.0316 µM
[14] = second compound 1 µM, first compound 0.1 µM
[15] = second compound 1 µM, first compound 0.316 µM
[16] = second compound 1 µM, first compound 1 µM
[17] = second compound 3.16 µM, first compound 0.0316 µM
[18] = second compound 3.16 µM, first compound 0.1 µM
[19] = second compound 3.16 µM, first compound 0.316 µM
[20] = second compound 3.16 µM, first compound 1 µM
[21] = second compound 10 µM, first compound 0.0316 µM
[22] = second compound 10 µM, first compound 0.1 µM
[23] = second compound 10 µM, first compound 0.316 µM
[24] = second compound 10 µM, first compound 1 µM
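Further: spheroids exposed to compounds for one week before readout.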
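Wherever viability, T/C is given: percent viability relative to DMSO vehicle wells taken as 100%.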

CNCc1ccc(-c2[nH]c3cc(F)cc4c3c2CCNC4=O)cc1 + Nc1ccc(C#CCN(C(=O)Cc2ncc(C(F)(F)F)cc2C(F)(F)F)c2ccc(F)cc2)nn1
IC50 (second compound 0.0316 µM): 7.9 µM
IC50 (second compound 0.1 µM): 7.18 µM
IC50 (second compound 0.316 µM): 7.71 µM
IC50 (second compound 1 µM): 7.52 µM
IC50 (second compound 3.16 µM): 7.03 µM
IC50 (second compound 10 µM): 6.23 µM
viability, T/C [1]: 101%
viability, T/C [2]: 107%
viability, T/C [3]: 97%
viability, T/C [4]: 104%
viability, T/C (second compound 0.0316 µM, first compound 3.16 µM): 104%
viability, T/C (second compound 0.0316 µM, first compound 10 µM): 36.2%
viability, T/C [5]: 104%
viability, T/C [6]: 111%
viability, T/C [7]: 90.3%
viability, T/C [8]: 119%
viability, T/C (second compound 0.1 µM, first compound 3.16 µM): 122%
viability, T/C (second compound 0.1 µM, first compound 10 µM): 25.8%
viability, T/C [9]: 102%
viability, T/C [10]: 112%
viability, T/C [11]: 104%
viability, T/C [12]: 95.7%
viability, T/C (second compound 0.316 µM, first compound 3.16 µM): 119%
viability, T/C (second compound 0.316 µM, first compound 10 µM): 33.4%
viability, T/C [13]: 107%
viability, T/C [14]: 94.8%
viability, T/C [15]: 95.8%
viability, T/C [16]: 105%
viability, T/C (second compound 1 µM, first compound 3.16 µM): 106%
viability, T/C (second compound 1 µM, first compound 10 µM): 33%
viability, T/C [17]: 96.8%
viability, T/C [18]: 93.3%
viability, T/C [19]: 93.8%
viability, T/C [20]: 102%
viability, T/C (second compound 3.16 µM, first compound 3.16 µM): 105%
viability, T/C (second compound 3.16 µM, first compound 10 µM): 28.6%
viability, T/C [21]: 93%
viability, T/C [22]: 78.5%
viability, T/C [23]: 102%
viability, T/C [24]: 103%
viability, T/C (second compound 10 µM, first compound 3.16 µM): 103%
viability, T/C (second compound 10 µM, first compound 10 µM): 17.9%

COc1cccc(OCCCN)c1-c1cc(Nc2cnc(C#N)cn2)n[nH]1 + Nc1ccc(C#CCN(C(=O)Cc2ncc(C(F)(F)F)cc2C(F)(F)F)c2ccc(F)cc2)nn1
IC50 (second compound 0.0316 µM): 0.136 µM
IC50 (second compound 0.1 µM): 0.0787 µM
IC50 (second compound 0.316 µM): 0.0759 µM
IC50 (second compound 1 µM): 0.0527 µM
IC50 (second compound 3.16 µM): 0.0661 µM
IC50 (second compound 10 µM): 0.039 µM
viability, T/C (second compound 0.0316 µM, first compound 0.00316 µM): 109%
viability, T/C (second compound 0.0316 µM, first compound 0.01 µM): 84.9%
viability, T/C [1]: 91.2%
viability, T/C [2]: 53.8%
viability, T/C [3]: 36.9%
viability, T/C [4]: 33.1%
viability, T/C (second compound 0.1 µM, first compound 0.00316 µM): 101%
viability, T/C (second compound 0.1 µM, first compound 0.01 µM): 102%
viability, T/C [5]: 77.3%
viability, T/C [6]: 43%
viability, T/C [7]: 42.6%
viability, T/C [8]: 36%
viability, T/C (second compound 0.316 µM, first compound 0.00316 µM): 98.9%
viability, T/C (second compound 0.316 µM, first compound 0.01 µM): 97.2%
viability, T/C [9]: 71.2%
viability, T/C [10]: 43.3%
viability, T/C [11]: 42.4%
viability, T/C [12]: 34.7%
viability, T/C (second compound 1 µM, first compound 0.00316 µM): 97.5%
viability, T/C (second compound 1 µM, first compound 0.01 µM): 96.6%
viability, T/C [13]: 60.3%
viability, T/C [14]: 38.6%
viability, T/C [15]: 38%
viability, T/C [16]: 29.4%
viability, T/C (second compound 3.16 µM, first compound 0.00316 µM): 103%
viability, T/C (second compound 3.16 µM, first compound 0.01 µM): 90.3%
viability, T/C [17]: 72.7%
viability, T/C [18]: 35.7%
viability, T/C [19]: 32.9%
viability, T/C [20]: 29.7%
viability, T/C (second compound 10 µM, first compound 0.00316 µM): 91.7%
viability, T/C (second compound 10 µM, first compound 0.01 µM): 69.3%
viability, T/C [21]: 50.2%
viability, T/C [22]: 41.2%
viability, T/C [23]: 34.4%
viability, T/C [24]: 24%
